According to patent US7745450B2, “Pyrazolo[4,3-d]pyrimidines, processes for their preparation and methods for therapy” (Institute of Experimental Botany, priority 2002, dated 2010):
Where two headings read alike, the source gives them in different places.

Experiments:
cdk1/cyclin B (CDC2) = cdk1/cyclin B (CDC2) (Homo sapiens, UniProt P06493); experiment: CDK inhibition assay, cdk1/cyclin B (CDC2) kinase, histone phosphorylation; type: biochemical; conditions: cell free system (Table 8)
How it was run: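 Radiometric endpoint kinase assay under linear conditions: histone (1 mg/ml) phosphorylated with 15 μM ATP and [γ-32P]ATP in 50 mM HEPES pH 7.4, 10 mM MgCl2, 1 mM DTT. IC50 obtained graphically from dose-response curves of % maximal activity, read by imaging analyzer.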

[1] = system: myeloid leukemia KG1 cell line; experiment: Cell proliferation of KG1, flow cytometric cell count; type: cell-based, human; conditions: for Recovery of cell number after wash-out: washed free after 6 hours of exposure, 7 days drug-free medium
Description: Cell lines: Human leukemic cell lines were obtained from the American Type Culture Collection (ATCC, Rockville, Md., USA). They were cultured in Iscove's Modified Dulbecco's Medium (IMDM) supplemented with 10% heat inactivated fetal calf serum (FCS), 200 U/ml penicillin, 200 μg/ml streptomycin and 1 μg/ml amphotericin B. Cells were cultured in a 5% CO2-95% air fully humidified incubator. For effects on clonogenic output, 1000 cells/well were plated in duplicate in methylcellulose (0.9%), supplemented with 20% FCS for 14 days.
Cells were plated at 10000 per well in 200 μl IMDM medium and incubated with 0-50 μM of the novel compounds (Tab 8), by addition of drug directly to the culture medium and incubated at 37° C. for 96 hours (Tab 8). Absolute cell number was determined by addition of a known concentration Fluoresbrite microspheres (FITC) (Polysciences, Inc.). The absolute number of cells/well was calculated as: {(total number of beads added/well)/(number of beads measured)×(number of measured cells in the gate of interest)}. All analyses were performed with a FACScan (BD), using CELLQuest software (Becton Dickinson).
Response of the myeloid leukemia KG1 and T-lymphocyte leukemia Molt3 cell lines to the cytostatic effect of the novel compounds was determined using the above-mentioned standardized bead suspension that was used to determine the absolute cell number by flow cytometric (FCM) measurement. Cells were grown in the presence of increasing concentration of the novel compounds.
To determine reversibility of the effects of the novel compounds, cells were plated at 10000 per well and exposed to 0-50 μM of the compounds for the time indicated, followed by washing in phosphate-buffered saline (PBS) (Life Technologies) and reseeded into drug-free medium for 7 additional days. An identical set of cells was plated and exposed to the drugs for 7 additional days. After 7 days (168 hours), the relative cell number was assayed by flow cytometry.

[2] = system: adult bone marrow CD34+CD38− cells; experiment: Pre-CFU assay; type: cell-based, human; conditions: for IC50: 14-day liquid culture, secondary methylcellulose culture
From the text: Adult Bone Marrow Cells (ABM): Bone marrow samples were obtained by sternal puncture from hematologically normal donors undergoing cardiac surgery, after obtaining informed consent according to the ethical regulations of the University of Antwerp. Cells were collected in IMDM supplemented with 10% FCS and 100 U/ml heparin and separated by density gradient as mentioned for PBMC. After washing, cells were resuspended in IMDM 10% FCS and were sorted on a FACStar (Becton Dickinson, Erembodegem, Belgium).
Cell sorting: ABM cells (10^7 cells/ml) were incubated with 43A1 hybridoma supernatant at a 1/10 dilution for 20 minutes at 4° C. The supernatant of the 43A1 hybridoma (immunoglobulin IgG3) was kindly donated by Dr. H. J. Bühring (University of Tübingen, Germany) and was used as a source of anti-CD34 antibodies. After washing twice in IMDM, the cells were incubated with FITC-conjugated rabbit anti-mouse IgG (1/40 dilution) for 20 min at 4° C. After washing twice cells were incubated for 10 minutes with 5 μg mouse Ig and for 15 minutes with anti-CD38-PE (20 μl/10^6 cells). After washing twice in IMDM, the cells were sorted on a FACStarPlus cell sorter equipped with an water-cooled argon ion laser (INNOVA Enterprise Ion Laser) with multiple wave length outputs including UV (488 nm). Cells with low-to-medium forward and low side scatter, highly positive green (CD34) fluorescence, and an orange (CD38) fluorescence signal lower than the mean fluorescence of cells labeled with an irrelevant isotype-matched control antibody were retained as CD34^+CD38^− cells; cells with an orange fluorescence above this threshold were retained as CD34^+CD38^+ cells.
Pre-CFU: Pre-CFU assays were initiated by performing liquid cultures of CD34^+CD38^− in duplicate in 96-well flat-bottomed plates in IMDM/10% FCS, 1% bovine serum albumin (BSA), and different combinations of the following cytokines: 100 U/ml IL-1, 200 U/ml IL-6, 30 U/ml IL-3 and 100 ng/ml stel cell factor (SCF). Pre-CFU cultures were initiated with 500 CD34^+CD38^− cells/well (200 μl). After 14 days of culture at 37° C. in 7.5% O2 and 5% CO2 in a fully humidified incubator, the number of cells in each well was counted. Following this the cells were harvested, washed three times in IMDM/10% FCS, and plated in duplicate at 500 cells/well (1000 μl) in secondary methylcellulose CFU cultures as described for CFU assays.
Pre-CFU were cultured starting from adult bone marrow CD34^+CD38^− cells, that had been isolated using the FCM cell sorter. Novel compounds were added at different concentrations to the primary 14-day liquid culture. IC50 was calculated from dose-response curves from total clonogenic output after secondary methylcellulose culture (Tab. 8).

[3] = continuous exposure, 7 days (168 hours), read-out: IC50, KG1 cells exposed continuously

Chain of cdk1/cyclin B (CDC2) (P06493 whole entry, species assumed): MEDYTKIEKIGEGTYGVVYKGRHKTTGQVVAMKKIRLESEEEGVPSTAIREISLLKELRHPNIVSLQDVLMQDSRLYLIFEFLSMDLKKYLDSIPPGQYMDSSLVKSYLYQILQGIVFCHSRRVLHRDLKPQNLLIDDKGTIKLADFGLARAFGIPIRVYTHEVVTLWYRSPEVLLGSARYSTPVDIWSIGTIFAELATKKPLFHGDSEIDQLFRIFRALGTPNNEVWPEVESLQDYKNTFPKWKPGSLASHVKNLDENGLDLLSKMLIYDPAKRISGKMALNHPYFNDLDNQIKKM
Chain of cdk1/cyclin B (CDC2) (P14635 whole entry partner, species assumed): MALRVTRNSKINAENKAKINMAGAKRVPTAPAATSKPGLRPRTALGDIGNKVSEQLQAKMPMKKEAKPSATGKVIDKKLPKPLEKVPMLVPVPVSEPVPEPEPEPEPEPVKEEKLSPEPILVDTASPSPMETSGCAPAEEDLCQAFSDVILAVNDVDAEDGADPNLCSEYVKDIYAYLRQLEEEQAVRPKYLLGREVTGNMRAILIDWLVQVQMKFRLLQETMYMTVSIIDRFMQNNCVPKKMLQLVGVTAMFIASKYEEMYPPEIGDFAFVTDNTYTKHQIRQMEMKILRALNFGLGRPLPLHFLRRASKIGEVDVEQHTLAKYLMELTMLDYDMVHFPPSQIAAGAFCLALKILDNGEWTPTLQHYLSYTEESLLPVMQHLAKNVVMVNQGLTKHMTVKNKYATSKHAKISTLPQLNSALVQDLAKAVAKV

IC50 (cdk1/cyclin B (CDC2)) [µM]	IC50 ([1]; 96 hours, read-out: KG1 IC50) [µM]	IC50 [1, 3] [µM]	IC50 [2] [µM]	IC50 ([1]; Homo sapiens, KG-1, 96 hours, read-out: KG1 IC50) [µM]	IC50 ([2]; Homo sapiens, 336 h) [µM]	Compound	Recovery of cell number after wash-out [1]	Activity on pre-CFU compared with CFU [2]
0.5	12 ± 1.3	16 ± 1.3	1.5	–	–	5-(3-aminoethylamino)-7-(3,4-dihydroxybenzyl)amino-3-isopropylpyrazolo[4,3-d]pyrimidine [Compound 201]	substantial recovery of cell number	–
30	–	–	–	5 ± 0.3	> 25	CCCCCCNc1nc(NC(CO)c2ccccc2)c2[nH]nc(C(C)C)c2n1 (stereo not shown) [Compound 98, 5-(hexylamino)-7-(1-phenyl-2-hydroxyethylamino)-3-isopropylpyrazolo[4,3-d]pyrimidine]	–	–
> 50	3 ± 1	7 ± 2	> 25	–	–	5-(3-hydroxypropylamino)-7-[(R,S)-(1-phenyl-2-hydroxyethyl)amino-3-isopropylpyrazolo[4,3-d]pyrimidine [Compound 172]	substantial recovery of cell number	–
11	6 ± 1	16 ± 1.7	10	–	–	5-(3-aminopropylamino)-7-benzylamino-3-isopropylpyrazolo[4,3-d]pyrimidine [Compound 17]	substantial recovery of cell number	–
> 100	13 ± 0.2	–	86	–	–	5-(methylthio)-7-[N-(3,4-dihydroxybenzyl-N-methyl]amino-3 isopropylpyrazolo[4,3-d]pyrimidine [Compound 26]	–	more active on pre-CFU than on CFU
